From EP0367671B1, “Novel beta-D-phenylthioxylosides, their method of preparation and their use as pharmaceuticals” (FOURNIER INDUSTRIE ET SANTE, priority 1988, dated 1990)

Tested on: venous thrombosis
Experiment: venous thrombosis protocol (venous stasis under hypercoagulation with activated factor X, Wessler technique; thrombus removed and weighed)
Type: in vivo
Conditions: Rattus norvegicus, po; 12.5 mg/kg p.o., suspension in PEG 400; thrombosis induced 4 hours after treatment; unfasted male Wistar rats
Procedure: A venous stasis is produced under hypercoagulation according to the technique described by WESSLER et al. (J. Applied Physiol. 1959, p. 943-946). As in the technique described by J. HAUPMAN et al. (Thrombosis and Haemostasis 43 (2) 1980, p. 118), the hypercoagulant used is a solution of activated factor X (Xa) supplied by the company Flow Laboratories (71 Knat per 12.5 ml of physiological serum).
The study is performed on unfasted male Wistar rats weighing 250 to 280 g and divided up into groups of 10 animals each. The test products are administered orally as a suspension in PEG 400. A thrombosis is induced 4 hours after this treatment and the thrombus formed is removed and weighed.
The results obtained at a dose of 12.5 mg/kg p.o. have been collated in Table I. The results obtained with the known products of the above-mentioned prior art have also been collated in this Table.

Compared with `N#Cc1ccc(S[C@@H]2SC[C@@H](O)[C@H](O)[C@H]2O)c(C(=O)c2ccccc2)c1` [Example 1, (2-benzoyl-4-cyanophenyl)-1,5-dithio-β-D-xylopyranoside], `N#Cc1cccc(C(=O)c2ccccc2S[C@@H]2SC[C@@H](O)[C@H](O)[C@H]2O)c1` [Example 6, (2-(3-cyanobenzoyl)phenyl)-1,5-dithio-β-D-xylopyranoside] is lower in inhibition in vivo at 12.5 mg/kg: 69% for the first, 59% for the second.

Going from `CC(=O)O[C@@H]1[C@@H](OC(C)=O)[C@H](Sc2ccc(C#N)cc2C(=O)c2ccccc2)SC[C@H]1OC(C)=O` [Example 1a, (2-benzoyl-4-cyanophenyl)-2,3,4-tri-O-acetyl-1,5-dithio-β-D-xylopyranoside] to `N#Cc1ccc(C(=O)c2ccccc2S[C@@H]2SC[C@@H](O)[C@H](O)[C@H]2O)cc1` [Example 4, (2-(4-cyanobenzoyl)phenyl)-1,5-dithio-β-D-xylopyranoside], the inhibition in vivo at 12.5 mg/kg rises from 43.8% to 88%.

Going from `N#Cc1ccc(S[C@@H]2SC[C@@H](O)[C@H](O)[C@H]2O)c(C(O)c2ccccc2)c1` (stereo partly drawn) [Example 2, (4-cyano-2-phenylhydroxymethylphenyl)-1,5-dithio-β-D-xylopyranoside] to `N#Cc1cccc(C(O)c2ccccc2S[C@@H]2SC[C@@H](O)[C@H](O)[C@H]2O)c1` (stereo partly drawn) [Example 7, (2-(3-cyanophenylhydroxymethyl)phenyl)-1,5-dithio-β-D-xylopyranoside], the inhibition in vivo at 12.5 mg/kg falls from 61% to 54%.

Going from `O=C(c1ccccc1)c1ccccc1S[C@@H]1SC[C@@H](O)[C@H](O)[C@H]1O` [Example 3, (2-benzoylphenyl)-1,5-dithio-β-D-xylopyranoside] to `N#Cc1ccccc1C(=O)c1ccccc1S[C@@H]1SC[C@@H](O)[C@H](O)[C@H]1O` [Example 8, (2-(2-cyanobenzoyl)phenyl)-1,5-dithio-β-D-xylopyranoside], the inhibition in vivo at 12.5 mg/kg rises from 4% to 57%.

Going from `N#Cc1ccc(C(O)c2ccccc2S[C@@H]2SC[C@@H](O)[C@H](O)[C@H]2O)cc1` (stereo partly drawn) [Example 5, (2-(4-cyanophenylhydroxymethyl)phenyl)-1,5-dithio-β-D-xylopyranoside] to `N#Cc1ccc(C(O)c2cc(C(F)(F)F)ccc2S[C@@H]2SC[C@@H](O)[C@H](O)[C@H]2O)cc1` (stereo partly drawn) [Example 10, (2-(4-cyanophenylhydroxymethyl)-4-trifluoromethylphenyl)-1,5-dithio-β-D-xylopyranoside], the inhibition in vivo at 12.5 mg/kg falls from 62% to 61%.

Compound `N#Cc1ccc(C(=O)c2cc(C(F)(F)F)ccc2S[C@@H]2SC[C@@H](O)[C@H](O)[C@H]2O)cc1` [Example 9, (2-(4-cyanobenzoyl)-4-trifluoromethylphenyl)-1,5-dithio-β-D-xylopyranoside] has an inhibition in vivo at 12.5 mg/kg of 56.5%.
